Data: PMC10009108, “Design, synthesis and screening of indole acetic acid-based tri-azo moieties as antioxidants, anti-microbial and cytotoxic agents” (Frontiers in Pharmacology, 2023)
In brackets after ≈: the same amount, converted by molar mass.

Tests used:
[1] = system: Streptomyces 85 E strains; assay: Protein kinase inhibition assay; type: cell-based; design: key to Bald zone: Active = Bacterial activity; --- = no activity; details: Sample Concentration = 20 μg/mL; Surfactin B 20 μg/mL
[2] = system: resistant P. aeruginosa; assay: Antibacterial assay, resistant strains; type: cell-based; design: key to Antibacterial activity, resistant P. aeruginosa: Activity: Positive = have anti-bacterial activity; --- = no anti-bacterial activity; details: 25 μg/mL; resistant strain
Description: (§1) The micro broth dilution method was used to establish the antibacterial potential of test samples against Staphylococcus aureus (ATCC-6538), Bacillus subtilis (ATCC-6633), Escherichia coli (ATCC-25922), Klebsiella pneumoniae (ATCC-1705), and Pseudomonas aeruginosa (ATCC-15442) and for the resistant strains of MRSA Staphylococcus aureus, P. aeruginosa and Escherichia coli. The procedure used is described by ([Sarker et al., 2007]). Bacterial inoculum was formed under aseptic conditions keeping the density near 5 × 10^4 CFU/mL in pre-autoclaved nutrient broth. Test samples of an aliquot of 5 µL were shifted to labeled wells of 96 well plates, and after that addition of 195 µL of nutrient broth; was accomplished. After that, a 2-fold serial dilution of every sample was arranged to get final concentrations of 12.5 μg/mL. Then, with the help of a micropipette, 195 µL of bacterial culture of respective strains was poured into each well; further advancement was incubating of plates for 30 min at the temperature of 37°C. […] Incubation of plates was again carried out at 37°C for 1 day, absorbance was noted, and net change in turbidity was the difference between two values of absorbance.
(§2) Schiff base tri-azo compounds were investigated for antibacterial potential. […] 6.25 μg/mL for 5b and 5g, and the least, Table 4 3.12 μg/mL was for 5f. […] Substituents with electron-withdrawing attributes, e.g., -NO2, -Cl, -OH on the aromatic ring, assert a great impact on the antibacterial activity of synthetic compounds. It is also observed that an increase in the number of -OH groups tend to enhance the activity ([Hosamani and Shingalapur, 2011]). Due to the difference in cell-wall composition of Gram + ve and -ve bacteria, different compounds show different features towards the same micro-organism ([Goszczyn’ska et al., 2015]).

[3] = system: Aspergillus niger (FCBP-0198); assay: Antifungal disc diffusion assay; type: cell-based; design: key to Zone of inhibition, A. niger: --- = no anti-fungal activity; details: 20 μg/disc
Description: (§3) The antifungal response to these chemical moieties was evaluated through a procedure designated by ([Zahra et al., 2017]). Amphotericin B (4 mg/mL DMSO) is used as + ve control and DMSO as-ve one (5 μL/disc). Sterile SDA-coated plates were used, on which 100 µL of suspension of spores for each strain (previously reaped-in-Tween-20 solution) was spread. Discs of sterile filter paper containing 5 µL of sample solution (4 mg/mL DMSO) were kept on plates and incubated for 2 days at 28°C. Zones of inhibition were recorded.
(§4) The Synthetic compound library was subjected to an antifungal assay using five different strains of Fungai, i.e., Fusarium solani (FCBP-0291), Aspergillus fumigatus (FCBP-66), Aspergillus flavus (FCBP-0064), Aspergillus niger (FCBP-0198) and Mucor species (FCBP-0300). Amphotericin B was the standard drug used. […] The outcomes are concise in Table 5.

[4] = system: Aspergillus fumigatus (FCBP-66); assay: Antifungal disc diffusion assay; type: cell-based; design: key to Zone of inhibition, A. fumigatus: --- = no anti-fungal activity; details: 20 μg/disc
Description: as §3, §4

[5] = system: MRSA; assay: Antibacterial assay, resistant strains; type: cell-based; details: Staphylococcus aureus, resistant strain
Description: as §1, §2

[6] = system: Mucor species (FCBP-0300); assay: Antifungal disc diffusion assay; type: cell-based; design: key to Zone of inhibition, Mucor: --- = no anti-fungal activity; details: 20 μg/disc
Description: as §3, §4

[7] = system: Fusarium solani (FCBP-0291); assay: Antifungal disc diffusion assay; type: cell-based; design: key to Zone of inhibition, F. solani: --- = no anti-fungal activity
Description: as §3, §4

[8] = system: Streptomyces 85 E strains; assay: Protein kinase inhibition assay; type: cell-based; design: key: Active = Bacterial activity; --- = no activity; details: Sample Concentration = 20 μg/mL; Surfactin B 20 μg/mL
Description: The protocol followed for this is mentioned ([Fatima et al., 2015]). To assess the test compound’s inhibitory potential, Streptomyces 85 E strains were used, which were refreshed in tryptone soya broth at 37 for 1 day. Spores from refreshed cultures were utilized to prepare the bacterial culture. 100 μg compound was loaded on 5 mm discs of filter paper. These were kept on sowed plates. DMSO-permeated discs were the -ve control. The incubation period was 7 days, and outcomes were stated as bald and clear zones of inhibition.
These synthetic products were evaluated to estimate the inhibitory potential for protein kinase of […] 85 E. Protein kinase is involved with the mycelium production of this species, so the growth patterns were observed as the bald zone. […] One of the propitious targets in cancer treatment is the inhibition of protein kinases. Protein phosphorylation by protein kinases at various residues regulates diverse biological processes, which may include apoptosis, proliferation and differentiation of cells. Deregulation at any step in early tumorigenesis may lead to cancer ([Yao et al., 2011]). Aerial hyphae formation in Streptomyces depends upon protein kinase activity; this scenario is exploited in this test; to inquire about these compounds’ kinase inhibition potential and to look at their anti-cancer potential. The advantage of using Streptomyces for kinase inhibition assay is its predisposition to a wide range of eukaryotic cells. Whole-cell assay of Streptomyces not only identifies the compound’s cytotoxic potential but also identifies signal transduction inhibitors for various activities, e.g., antitumor, anti-mycobacterial, and anti-infective ([Waters et al., 2002]). […] Activity with a bald zone of 10.5 mm and a clear zone of 7.5 mm, following is 5a with a bald zone of 9 mm and a clear zone of 6 mm, and for 5g, values are 7.5 and 6 mm, respectively. It means that these compounds have the potential for protein kinase inhibition as well as the toxicity of the compound.

[9] = system: Klebsiella pneumoniae (ATCC-1705); assay: Antibacterial assay, micro broth dilution; type: cell-based; design: key: Active = Bacterial activity; --- = no activity; details: 25 μg/mL
[10] = system: resistant S. aureus; assay: Antibacterial assay, resistant strains; type: cell-based, Staphylococcus aureus; design: key to Antibacterial activity, resistant S. aureus: Activity: Positive = have anti-bacterial activity; --- = no anti-bacterial activity; details: 25 μg/mL; resistant strain
Description: as §1, §2

[11] = system: Aspergillus flavus (FCBP-0064); assay: Antifungal disc diffusion assay; type: cell-based; design: key to Zone of inhibition, A. flavus: --- = no anti-fungal activity; details: 20 μg/disc
Description: as §3, §4

[12] = system: MRSA; assay: Antibacterial assay, resistant strains; type: cell-based, Staphylococcus aureus; details: 25 μg/mL; resistant strain

| Compound | MIC [5] [µg/mL] | Bald zone [1] | Antibacterial activity, resistant P. aeruginosa: Activity [2] | Zone of inhibition, A. niger [3] | Zone of inhibition, A. fumigatus [4] | Zone of inhibition, Mucor [6] | Zone of inhibition, F. solani ([7]; 20 μg/disc) | Clear zone [8] | Antibacterial activity, Klebsiella pneumoniae: Activity [9] | Antibacterial activity, resistant S. aureus: Activity [10] | Zone of inhibition, A. flavus [11] | Antibacterial activity, MRSA: Activity [12] | antifungal activity against Fusarium solani (in words) [7] | zone of inhibition at 20 µg/disc ([7]; Fusarium solani, 20 μg/disc, read-out: Zone of inhibition, F. solani) [mm] | Clear zone [1] [mm] |
| --- | --- | --- | --- | --- | --- | --- | --- | --- | --- | --- | --- | --- | --- | --- | --- |
| S=c1[nH]nc(Cc2c[nH]c3ccccc23)n1N=Cc1ccc(Cl)cc1 [Compound 5c] | 12.5 (≈ 34 µM) | --- | --- | --- | --- | --- | --- | --- | Active | --- | --- | Active |  |  |  |
| Oc1cccc(C=Nn2c(Cc3c[nH]c4ccccc34)n[nH]c2=S)c1 [Compound 5a] | 12.5 (≈ 35.8 µM) | 9 mm |  | --- | --- | --- | --- | 6 mm | Active |  | --- | Active |  |  |  |
| COc1cccc(C=Nn2c(Cc3c[nH]c4ccccc34)n[nH]c2=S)c1 [Compound 5b] | 12.5 (≈ 34.4 µM) | 10.5 mm | --- | --- | --- | --- | --- | 7.5 mm | Active | --- | --- | Active |  |  |  |

More lines, main results first:

| MIC [5] [µg/mL] | Compound | Bald zone [1] | Antibacterial activity, resistant P. aeruginosa: Activity [2] | Zone of inhibition, A. niger [3] | Zone of inhibition, A. fumigatus [4] | Zone of inhibition, Mucor [6] | Zone of inhibition, F. solani ([7]; 20 μg/disc) | Clear zone [8] | Antibacterial activity, Klebsiella pneumoniae: Activity [9] | Antibacterial activity, resistant S. aureus: Activity [10] | Zone of inhibition, A. flavus [11] | Antibacterial activity, MRSA: Activity [12] | antifungal activity against Fusarium solani (in words) [7] | zone of inhibition at 20 µg/disc ([7]; Fusarium solani, 20 μg/disc, read-out: Zone of inhibition, F. solani) [mm] | Clear zone [1] [mm] |
| --- | --- | --- | --- | --- | --- | --- | --- | --- | --- | --- | --- | --- | --- | --- | --- |
| 12.5 (≈ 34 µM) | S=c1[nH]nc(Cc2c[nH]c3ccccc23)n1N=Cc1cccc(Cl)c1 [Compound 5f] | --- | --- | --- | --- | --- | --- | --- | Active | --- | --- | Active |  |  |  |
| 12.5 (≈ 35.8 µM) | Oc1ccc(C=Nn2c(Cc3c[nH]c4ccccc34)n[nH]c2=S)cc1 [Compound 5e] | --- | --- | --- | --- | --- | 6 mm | --- | Active | --- | --- | Active | active | > 6 |  |
| 12.5 (≈ 33 µM) | O=[N+]([O-])c1ccc(C=Nn2c(Cc3c[nH]c4ccccc34)n[nH]c2=S)cc1 [Compound 5d] | --- | --- | --- | --- | --- | --- | --- | Active | --- | --- | Active |  |  |  |
| 12.5 (≈ 29.5 µM) | COc1cc(C=Nn2c(Cc3c[nH]c4ccccc34)n[nH]c2=S)cc(OC)c1OC [Compound 5g] | 7.5 mm | --- | --- | --- | --- | --- |  | Active | --- | --- | Active |  |  | 6 |
